Values quoted from earlier work as cited in US6379706B2, “Rapidly disintegrating coated pellets with delayed release” (Roche Diagnostics GmbH, priority 1996, dated 2002).

Conditions: for solubility (in words): aqueous medium

Row | solubility (in words) | solubility in the intestinal juice (in words) (intestinal juice) | SMILES
1 | poorly soluble | – | CC(C)(Oc1ccc(CCNC(=O)c2ccc(Cl)cc2)cc1)C(=O)O [Bezafibrat, 2-{4-[2-[(4-chloro-benzoyl)-amino]ethyl]-phenoxy}-2-methylpropionic acid]
2 | poorly soluble | particularly poorly soluble | COc1ccccc1OCCNCC(O)COc1cccc2[nH]c3ccccc3c12 (racemic) [Carvedilol, (+/−)-1-(9H-carbazol-4-yloxy)-3-[(2-(2-methoxyphenoxy)-ethyl)-amino]-2-propanol]
3 | poorly soluble | – | Cc1cccc(Nc2ccncc2S(=O)(=O)NC(=O)NC(C)C)c1 [Torasemid, 1-isopropyl-3-[(4-m-toluidino-3-pyridyl)sulfonyl]-urea]
